In ChEMBL document CHEMBL1121849, “Synthetic antagonists of in vivo antidiuretic and vasopressor responses to arginine-vasopressin” (J Med Chem, 1981):
Starred links: 1 amine or outer side, 2 acyl side, 3 side chain; linkers in the order of their positions; H or OH if unused. Positions of bridges follow the written chain, without caps; N, C: chain ends. Non-standard residues stand in square brackets, D forms with d. Residues, ends and D or L forms follow the SMILES beside them. *: point of attachment. X1 = O=C(CC1(S[*:2])CCCCC1)[*:1]; iPr = CC(C)*

How the values were obtained:
[1] = system: Rattus norvegicus; assay: Tested in vivo for antidiuretic potency injected intraperitoneally in rats under ethanol anesthesia; assay type: ADME, organism-based, Urine; details: ip
[2] = In vivo antidiuretic antagonistic activity expressed as negative logarithm of the effective dose divided by the estimated volume of distribution (67 mL/kg).; assay type: ADME, organism-based; details: Urine; read-out: pA2 (converted)
[3] = system: Rattus norvegicus; assay: In vivo anti-vasopressor antagonistic activity expressed as negative logarithm of the effective dose divided by the estimated volume of distribution (67 mL/kg).; assay type: ADME, organism-based; details: read-out: pA2 (converted)
[4] = system: Rattus norvegicus; assay: Tested in vivo for anti-vasopressor potency injected intraperitoneally in phenoxybenzamine-treated rats under urethane anesthesia; assay type: functional

SMILES | ED [1] | Kb [2] | Kb [3] | ED [4]
CCCOc1ccc(C[C@@H]2NC(=O)CC3(CCCCC3)SSC[C@@H](C(=O)N3CCC[C@H]3C(=O)N[C@@H](CCCN=C(N)N)C(=O)NCC(N)=O)NC(=O)[C@H](CC(N)=O)NC(=O)[C@H](C(C)C)NC(=O)[C@H](Cc3ccccc3)NC2=O)cc1 [listing 1 of 2 here] | 3.5 nM/kg | 51.3 nM | 6.03 nM | –
COc1ccc(C[C@@H]2NC(=O)CC3(CCCCC3)SSC[C@@H](C(=O)N3CCC[C@H]3C(=O)N[C@H](CCCN=C(N)N)C(=O)NCC(N)=O)NC(=O)[C@H](CC(N)=O)NC(=O)[C@H](C(C)C)NC(=O)[C@H](Cc3ccccc3)NC2=O)cc1 (Y(Me)FVNCP[dR]G-NH2; linker N-5 via X1) [listing 1 of 2 here] | – | – | – | 0.28 nM/kg
CCOc1ccc(C[C@@H]2NC(=O)CC3(CCCCC3)SSC[C@@H](C(=O)N3CCC[C@H]3C(=O)N[C@@H](CCCN=C(N)N)C(=O)NCC(N)=O)NC(=O)[C@H](CC(N)=O)NC(=O)[C@H](C(C)C)NC(=O)[C@H](Cc3ccccc3)NC2=O)cc1 (Y(Et)FVNCPRG-NH2; linker N-5 via X1) [listing 1 of 2 here] | – | – | – | 0.49 nM/kg
COc1ccc(C[C@@H]2NC(=O)CC3(CCCCC3)SSC[C@@H](C(=O)N3CCC[C@H]3C(=O)N[C@@H](CCCN=C(N)N)C(=O)NCC(N)=O)NC(=O)[C@H](CC(N)=O)NC(=O)[C@H](C(C)C)NC(=O)[C@H](Cc3ccccc3)NC2=O)cc1 (Y(Me)FVNCPRG-NH2; linker N-5 via X1) [listing 1 of 2 here] | 3.1 nM/kg | 44.7 nM | 4.79 nM | –
CCOc1ccc(C[C@@H]2NC(=O)CC3(CCCCC3)SSC[C@@H](C(=O)N3CCC[C@H]3C(=O)N[C@@H](CCCN=C(N)N)C(=O)NCC(N)=O)NC(=O)[C@H](CC(N)=O)NC(=O)[C@H](C(C)C)NC(=O)[C@H](Cc3ccccc3)NC2=O)cc1 (Y(Et)FVNCPRG-NH2; linker N-5 via X1) [listing 2 of 2 here] | 1.9 nM/kg | 26.9 nM | 6.92 nM | –
CC(C)Oc1ccc(C[C@@H]2NC(=O)CC3(CCCCC3)SSC[C@@H](C(=O)N3CCC[C@H]3C(=O)N[C@H](CCCN=C(N)N)C(=O)NCC(N)=O)NC(=O)[C@H](CC(N)=O)NC(=O)[C@H](C(C)C)NC(=O)[C@H](Cc3ccccc3)NC2=O)cc1 (Y(iPr)FVNCP[dR]G-NH2; linker N-5 via X1) [listing 1 of 2 here] | – | – | – | 0.28 nM/kg
CC(C)Oc1ccc(C[C@@H]2NC(=O)CC3(CCCCC3)SSC[C@@H](C(=O)N3CCC[C@H]3C(=O)N[C@H](CCCN=C(N)N)C(=O)NCC(N)=O)NC(=O)[C@H](CC(N)=O)NC(=O)[C@H](C(C)C)NC(=O)[C@H](Cc3ccccc3)NC2=O)cc1 (Y(iPr)FVNCP[dR]G-NH2; linker N-5 via X1) [listing 2 of 2 here] | 8.5 nM/kg | 132 nM | 3.89 nM | –
CCCOc1ccc(C[C@@H]2NC(=O)CC3(CCCCC3)SSC[C@@H](C(=O)N3CCC[C@H]3C(=O)N[C@H](CCCN=C(N)N)C(=O)NCC(N)=O)NC(=O)[C@H](CC(N)=O)NC(=O)[C@H](C(C)C)NC(=O)[C@H](Cc3ccccc3)NC2=O)cc1 [listing 1 of 2 here] | 14 nM/kg | 214 nM | 13.8 nM | –
CC(C)Oc1ccc(C[C@@H]2NC(=O)CC3(CCCCC3)SSC[C@@H](C(=O)N3CCC[C@H]3C(=O)N[C@@H](CCCN=C(N)N)C(=O)NCC(N)=O)NC(=O)[C@H](CC(N)=O)NC(=O)[C@H](C(C)C)NC(=O)[C@H](Cc3ccccc3)NC2=O)cc1 (Y(iPr)FVNCPRG-NH2; linker N-5 via X1) [listing 1 of 2 here] | – | – | – | 0.31 nM/kg
CCOc1ccc(C[C@@H]2NC(=O)CC3(CCCCC3)SSC[C@@H](C(=O)N3CCC[C@H]3C(=O)N[C@H](CCCN=C(N)N)C(=O)NCC(N)=O)NC(=O)[C@H](CC(N)=O)NC(=O)[C@H](C(C)C)NC(=O)[C@H](Cc3ccccc3)NC2=O)cc1 (Y(Et)FVNCP[dR]G-NH2; linker N-5 via X1) [listing 1 of 2 here] | 5.7 nM/kg | 79.4 nM | – | –
COc1ccc(C[C@@H]2NC(=O)CC3(CCCCC3)SSC[C@@H](C(=O)N3CCC[C@H]3C(=O)N[C@H](CCCN=C(N)N)C(=O)NCC(N)=O)NC(=O)[C@H](CC(N)=O)NC(=O)[C@H](C(C)C)NC(=O)[C@H](Cc3ccccc3)NC2=O)cc1 (Y(Me)FVNCP[dR]G-NH2; linker N-5 via X1) [listing 2 of 2 here] | 15 nM/kg | 209 nM | 3.63 nM | –
CCOc1ccc(C[C@@H]2NC(=O)CC3(CCCCC3)SSC[C@@H](C(=O)N3CCC[C@H]3C(=O)N[C@H](CCCN=C(N)N)C(=O)NCC(N)=O)NC(=O)[C@H](CC(N)=O)NC(=O)[C@H](C(C)C)NC(=O)[C@H](Cc3ccccc3)NC2=O)cc1 (Y(Et)FVNCP[dR]G-NH2; linker N-5 via X1) [listing 2 of 2 here] | – | – | – | 0.34 nM/kg
CCCOc1ccc(C[C@@H]2NC(=O)CC3(CCCCC3)SSC[C@@H](C(=O)N3CCC[C@H]3C(=O)N[C@H](CCCN=C(N)N)C(=O)NCC(N)=O)NC(=O)[C@H](CC(N)=O)NC(=O)[C@H](C(C)C)NC(=O)[C@H](Cc3ccccc3)NC2=O)cc1 [listing 2 of 2 here] | – | – | – | 1.1 nM/kg
CCCOc1ccc(C[C@@H]2NC(=O)CC3(CCCCC3)SSC[C@@H](C(=O)N3CCC[C@H]3C(=O)N[C@@H](CCCN=C(N)N)C(=O)NCC(N)=O)NC(=O)[C@H](CC(N)=O)NC(=O)[C@H](C(C)C)NC(=O)[C@H](Cc3ccccc3)NC2=O)cc1 [listing 2 of 2 here] | – | – | – | 0.4 nM/kg
COc1ccc(C[C@@H]2NC(=O)CC3(CCCCC3)SSC[C@@H](C(=O)N3CCC[C@H]3C(=O)N[C@@H](CCCN=C(N)N)C(=O)NCC(N)=O)NC(=O)[C@H](CC(N)=O)NC(=O)[C@H](C(C)C)NC(=O)[C@H](Cc3ccccc3)NC2=O)cc1 (Y(Me)FVNCPRG-NH2; linker N-5 via X1) [listing 2 of 2 here] | – | – | – | 0.29 nM/kg
CC(C)Oc1ccc(C[C@@H]2NC(=O)CC3(CCCCC3)SSC[C@@H](C(=O)N3CCC[C@H]3C(=O)N[C@@H](CCCN=C(N)N)C(=O)NCC(N)=O)NC(=O)[C@H](CC(N)=O)NC(=O)[C@H](C(C)C)NC(=O)[C@H](Cc3ccccc3)NC2=O)cc1 (Y(iPr)FVNCPRG-NH2; linker N-5 via X1) [listing 2 of 2 here] | 3.6 nM/kg | 47.9 nM | 4.37 nM | –
